Source: patent US20050095240A1, “NaCT as a target for lifespan expansion and weight reduction” (Medical College of Georgia Research, priority 2002, published 2005)

Columns and labels:
hNaDC3 [1] = molecular target: T1, hNaDC3 (Homo sapiens, UniProt Q8WWT9); test: cell-based
T1 sequence (Q8WWT9 1-602): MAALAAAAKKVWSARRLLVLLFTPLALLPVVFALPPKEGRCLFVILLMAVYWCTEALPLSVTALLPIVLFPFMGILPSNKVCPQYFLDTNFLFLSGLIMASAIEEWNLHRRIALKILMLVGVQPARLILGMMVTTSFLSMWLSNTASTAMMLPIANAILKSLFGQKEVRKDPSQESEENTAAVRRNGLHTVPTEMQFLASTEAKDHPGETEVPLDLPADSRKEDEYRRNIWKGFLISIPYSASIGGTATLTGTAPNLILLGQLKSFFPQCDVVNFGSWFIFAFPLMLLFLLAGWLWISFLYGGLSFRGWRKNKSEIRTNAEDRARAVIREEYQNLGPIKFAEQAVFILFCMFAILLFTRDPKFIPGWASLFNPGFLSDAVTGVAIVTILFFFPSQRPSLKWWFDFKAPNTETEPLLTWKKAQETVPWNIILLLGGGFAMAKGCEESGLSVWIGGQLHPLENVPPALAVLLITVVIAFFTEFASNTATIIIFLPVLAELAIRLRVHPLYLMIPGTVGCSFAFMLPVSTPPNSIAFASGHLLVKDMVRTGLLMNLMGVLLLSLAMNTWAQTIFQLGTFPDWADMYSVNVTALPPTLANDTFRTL

mouse NaCT = molecular target: T2, mouse NaCT (Mus musculus, UniProt Q67BT3); test: Mouse NaCT in X. laevis oocytes, two-microelectrode voltage clamp; assay type: cell-based; conditions: 0.5 mM citrate; three oocytes; −50 mV
T2 sequence (Q67BT3 1-572): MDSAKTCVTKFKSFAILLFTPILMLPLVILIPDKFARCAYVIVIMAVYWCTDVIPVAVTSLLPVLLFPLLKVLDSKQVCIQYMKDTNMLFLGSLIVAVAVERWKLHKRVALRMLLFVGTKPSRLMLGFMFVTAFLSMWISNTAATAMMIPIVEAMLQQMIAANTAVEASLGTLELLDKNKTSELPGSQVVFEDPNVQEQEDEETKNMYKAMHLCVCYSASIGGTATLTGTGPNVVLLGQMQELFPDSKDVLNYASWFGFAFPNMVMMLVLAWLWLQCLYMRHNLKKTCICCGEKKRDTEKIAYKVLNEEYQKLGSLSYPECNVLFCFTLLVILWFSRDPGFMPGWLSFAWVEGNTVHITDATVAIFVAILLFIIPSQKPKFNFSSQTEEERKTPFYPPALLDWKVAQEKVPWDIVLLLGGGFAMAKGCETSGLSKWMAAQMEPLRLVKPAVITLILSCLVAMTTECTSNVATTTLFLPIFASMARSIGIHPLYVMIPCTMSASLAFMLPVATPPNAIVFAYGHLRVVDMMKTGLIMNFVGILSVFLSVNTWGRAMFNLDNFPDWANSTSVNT
Experimental: Functional expression of mouse and rat NaCTs in Xenopus laevis oocytes. Capped cRNA from the cloned mouse NaCT cDNA was synthesized using the mMESSAGE mMACHINE kit (Ambion Inc., Austin, Tex., USA). In some experiments, rat NaCT of Example 2 was used for functional expression. […] On the following day, oocytes were injected with 50 ng cRNA. Water-injected oocytes served as controls. The oocytes were used for electrophysiological studies 4-6 days after cRNA injection. Electrophysiological studies were performed by the two-microelectrode voltage-clamp method (Hatanaka et al., J. Clin. Invest. (2001);107: 1035-1043 and Nakanishi et al., J. Physiol. (2001);532: 297-304). […] The membrane potential was clamped at −50 mV. […] The oocytes were perifused with 50 μM [^14C]-citrate or 50 μM succinate (unlabeled plus radiolabeled succinate) and inward currents were monitored over a period of 10 min. […] The area within the curve describing the relationship between the time and inward current was integrated to calculate the charge transferred into the oocyte during incubation with citrate or succinate. The values for substrate transport and charge transfer were used to determine the charge-to-substrate ratio.

ceNaCT = molecular target: T3, ceNaCT (Caenorhabditis elegans, UniProt P32739, I91S/L182M); test: Uptake via ceNaCT expressed in HRPE cells; conditions: for Competition with [^14C]citrate for ceNaCT-mediated uptake: competitor 2.5 mM, [14C]citrate 15 μM
T3 sequence (P32739 1-551 I91S/L182M): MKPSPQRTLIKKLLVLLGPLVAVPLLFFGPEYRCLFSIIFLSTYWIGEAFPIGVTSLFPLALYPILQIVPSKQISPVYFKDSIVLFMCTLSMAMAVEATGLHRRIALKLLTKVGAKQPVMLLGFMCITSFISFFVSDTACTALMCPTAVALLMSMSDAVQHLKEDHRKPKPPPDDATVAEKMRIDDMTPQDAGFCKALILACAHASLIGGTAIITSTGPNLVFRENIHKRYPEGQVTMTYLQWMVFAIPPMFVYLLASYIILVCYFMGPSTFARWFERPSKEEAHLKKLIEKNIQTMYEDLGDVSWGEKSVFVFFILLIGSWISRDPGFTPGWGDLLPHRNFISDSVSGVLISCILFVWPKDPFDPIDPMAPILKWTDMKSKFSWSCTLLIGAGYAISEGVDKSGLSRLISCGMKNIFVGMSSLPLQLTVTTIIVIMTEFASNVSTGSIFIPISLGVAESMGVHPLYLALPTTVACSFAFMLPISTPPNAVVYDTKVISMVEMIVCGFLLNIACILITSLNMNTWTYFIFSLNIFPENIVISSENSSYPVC

[2] = molecular target: Phe→Leu mutant of human NaCT (Homo sapiens, UniProt Q86YT5, F500L); test: Citrate uptake via Phe→Leu mutant of human NaCT in HRPE cells; assay type: cell-based
drIndy [3] = molecular target: T4, drIndy (Drosophila melanogaster, UniProt Q9VVT2); test: cell-based
zebrafish NaCT = zebrafish NaCT (Danio rerio, UniProt A0A2R8QQN0, K78Q); test: Citrate uptake via zebrafish NaCT expressed in HRPE cells; assay type: cell-based
NaDC1 = conditions: cited from earlier work
NaDC3 = conditions: cited from earlier work
drIndy [4] = molecular target: T4, drIndy; conditions: succinate 0.1 μM
hNaDC3 [5] = molecular target: T1, hNaDC3; conditions: read-out: Km for succinate, hNaDC3; as determined by Wang et al.; cited from earlier work

Sequence of zebrafish NaCT (A0A2R8QQN0 2-582 K78Q): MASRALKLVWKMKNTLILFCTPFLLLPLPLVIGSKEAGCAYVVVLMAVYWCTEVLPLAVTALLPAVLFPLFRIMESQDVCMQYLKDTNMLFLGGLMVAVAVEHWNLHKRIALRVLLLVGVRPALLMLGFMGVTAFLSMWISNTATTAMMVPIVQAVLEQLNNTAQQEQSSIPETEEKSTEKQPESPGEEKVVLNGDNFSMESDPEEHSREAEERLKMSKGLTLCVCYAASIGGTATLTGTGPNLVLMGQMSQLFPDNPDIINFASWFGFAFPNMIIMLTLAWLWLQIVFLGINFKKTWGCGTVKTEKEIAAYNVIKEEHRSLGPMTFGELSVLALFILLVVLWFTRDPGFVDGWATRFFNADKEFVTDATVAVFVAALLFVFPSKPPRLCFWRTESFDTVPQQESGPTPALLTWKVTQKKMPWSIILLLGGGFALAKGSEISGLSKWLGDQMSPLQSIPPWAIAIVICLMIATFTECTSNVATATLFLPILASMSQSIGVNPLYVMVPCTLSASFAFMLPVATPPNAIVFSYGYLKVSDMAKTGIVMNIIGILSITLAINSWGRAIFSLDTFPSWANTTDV
Sequence of Phe→Leu mutant of human NaCT (Q86YT5 whole entry F500L): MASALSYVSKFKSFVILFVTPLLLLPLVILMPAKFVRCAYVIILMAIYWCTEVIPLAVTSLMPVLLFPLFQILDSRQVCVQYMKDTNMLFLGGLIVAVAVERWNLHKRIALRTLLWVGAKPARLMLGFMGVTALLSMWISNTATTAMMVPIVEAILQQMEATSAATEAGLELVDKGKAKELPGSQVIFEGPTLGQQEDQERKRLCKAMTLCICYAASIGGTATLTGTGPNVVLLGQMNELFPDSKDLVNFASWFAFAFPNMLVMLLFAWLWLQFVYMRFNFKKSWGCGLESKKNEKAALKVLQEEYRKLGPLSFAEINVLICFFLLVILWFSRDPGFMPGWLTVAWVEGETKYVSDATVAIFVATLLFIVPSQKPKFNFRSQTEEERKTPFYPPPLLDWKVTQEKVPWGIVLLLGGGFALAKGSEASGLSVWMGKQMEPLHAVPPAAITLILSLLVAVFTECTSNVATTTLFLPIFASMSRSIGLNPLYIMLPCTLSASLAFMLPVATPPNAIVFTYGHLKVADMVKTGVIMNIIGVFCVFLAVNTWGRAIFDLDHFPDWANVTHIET
T4 sequence (Q9VVT2 19-590): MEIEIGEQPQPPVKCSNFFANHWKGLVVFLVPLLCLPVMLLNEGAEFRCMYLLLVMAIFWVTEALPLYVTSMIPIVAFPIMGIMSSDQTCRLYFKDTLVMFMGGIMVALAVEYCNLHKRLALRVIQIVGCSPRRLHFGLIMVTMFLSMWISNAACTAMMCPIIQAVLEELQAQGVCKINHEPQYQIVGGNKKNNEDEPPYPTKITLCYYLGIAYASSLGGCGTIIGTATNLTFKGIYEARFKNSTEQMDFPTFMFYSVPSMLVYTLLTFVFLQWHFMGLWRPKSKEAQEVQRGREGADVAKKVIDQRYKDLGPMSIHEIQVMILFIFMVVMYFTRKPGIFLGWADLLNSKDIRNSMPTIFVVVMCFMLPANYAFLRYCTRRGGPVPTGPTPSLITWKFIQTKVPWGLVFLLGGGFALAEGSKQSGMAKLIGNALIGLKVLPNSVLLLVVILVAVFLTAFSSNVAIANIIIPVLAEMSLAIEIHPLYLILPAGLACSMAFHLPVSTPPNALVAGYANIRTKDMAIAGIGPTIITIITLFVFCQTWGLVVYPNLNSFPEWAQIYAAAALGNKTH

Compound	Ki (hNaDC3 [1])	Citrate-induced inward current (mouse NaCT)	Uptake in ceNaCT-expressing cells vs vector-transfected control cells (ceNaCT; [14C]citrate 10 μM, Na+, pH 7.5)	Uptake of [^14C]citrate in cells expressing ceNaCT (ceNaCT; citrate 10 μM, Na+, pH 7.5)	Competition with [^14C]citrate for ceNaCT-mediated uptake (ceNaCT)	Vmax for transport via ceNaCT (ceNaCT; pH 7.5)	Increase in substrate affinity of mutant vs wild type [2]	Kt for citrate, Phe→Leu mutant [2]	Ki (drIndy [3])	IC50 (zebrafish NaCT)	Km (zebrafish NaCT; read-out: Michaelis constant for citrate uptake, hrpe cells, 30 min)	Michaelis-Menten constant for succinate, NaDC1 (NaDC1)	Km (ceNaCT; read-out: Michaelis-Menten constant (Kt) for transport via ceNaCT, pH 7.5, 30 min)	Michaelis-Menten constant for succinate, NaDC3 (NaDC3)	Uptake of radiolabelled succinate in drIndy cRNA-injected vs water-injected oocytes (drIndy [4])	Km (hNaDC3 [5])
O=C(O)CC(O)(CC(=O)O)C(=O)O [Citrate]	2100 ± 300 µM	30±7 nA	approximately 45 fold	61±5 pmol/10^6 Cells/min	potent inhibitor	270±13 pmol/10^6 cells/min	7 fold	78 ± 8 µM	105 ± 35 µM	30 ± 4 µM	40 ± 4 µM					
O=C(O)CCC(=O)O [Succinate, succinate]					inhibited markedly	210±8 pmol/10^6 cells/min				51 ± 9 µM		0.1 to 4.0 mM	88 ± 13 µM	2 to 50 µM	12 fold	20 ± 1 µM
